Assay results reported in PubChem BioAssay (NCI).
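Values below derive from 48-hour exposures of cells grown in 96-well plates, with endpoints linearly interpolated between the two concentrations bracketing the appropriate inhibition level. GI50 marks 50% less growth. TGI: total growth inhibition.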

What was measured:
Experiment in all cases: NCI-60 cell line screen, 48 h
[1] = test system: 786-0 renal
[2] = test system: CAKI-1 renal
[3] = test system: IGROV1 ovarian
[4] = test system: M14 melanoma
[5] = test system: NCI-H460 lung
[6] = test system: SF-539 CNS
[7] = test system: SW-620 colon
[8] = test system: DU-145 prostate
[9] = test system: UACC-257 melanoma
[10] = test system: HCC-2998 colon

Compound | TGI [1] [µM] | TGI [2] [µM] | TGI [3] [µM] | TGI [4] [µM] | TGI [5] [µM] | TGI [6] [µM] | TGI [7] [µM] | GI50 [1] [µM] | GI50 [2] [µM] | GI50 [8] [µM] | TGI [8] [µM] | GI50 [3] [µM] | GI50 [4] [µM] | GI50 [5] [µM] | GI50 [7] [µM] | GI50 [9] [µM] | TGI [9] [µM] | GI50 [6] [µM] | TGI [10] [µM] | GI50 [10] [µM]
O=C(N/N=C1/C(=O)N(c2ccc(Cl)cc2Cl)C(=O)C(=O)C1c1nc2ccccc2o1)c1ccccc1O (stereo unspecified) | > 100 | > 100 | > 100 | 76.2 | > 100 | 97.1 | > 100 |  |  |  |  |  |  |  |  |  |  |  |  | 
Ic1ccc(-n2nnnc2-c2cnoc2-c2ccccc2)cc1 | > 100 | > 100 | > 100 | > 67.3 | > 100 | 3.98 | > 100 | 60.2 | 37.9 | 5.99 | > 100 | > 73.6 | 37.6 | 35 | 39.6 | > 58.5 | > 100 |  |  | 
Cc1cn2c(/C=C3\C(=O)Nc4ccc(O)cc43)c(-c3ccc(Cl)cc3)nc2s1 | 32.7 | 72.8 | 23.9 | > 100 | 45.3 | 33.9 | > 100 | 16.6 | 33.4 | 10.3 | 25.2 | 5.56 | 17 | 15.5 | 35.6 | 21.3 | > 100 | 17.5 |  | 
O=C(NC(=O)c1cn(CCNCCO)c(=O)[nH]c1=O)OCc1ccccc1 | > 100 | > 100 | > 100 | > 100 | > 100 | > 100 | > 100 |  |  |  |  |  |  |  |  |  |  |  |  | 
C1CSCCSCCS1 | > 100 |  | > 100 | > 100 | > 100 | > 100 | > 100 |  |  |  | > 100 |  |  |  |  |  | > 100 |  | > 100 | 
CCC1C2C=CC(CC2)N1S(=O)(=O)c1ccc(C)cc1 (stereo unspecified) | > 100 | > 100 |  | > 100 | 52.1 | 76.6 | 50.3 |  |  |  |  |  |  |  |  |  | 93.5 |  |  | 
Cc1ccc(S(=O)(=O)N/N=C/c2oc(-c3ccncc3)c(-c3ccncc3)c2[N+](=O)[O-])cc1 | > 100 | > 100 | > 100 | > 100 | > 100 | > 100 | > 100 |  |  |  |  |  |  |  |  |  | > 100 |  | > 100 | 
CCN1CCN=c2c3cc(OC)ccc3n3cnc4ccc1c2c43 | 0.394 |  | 7.62 | 1.04 | 0.308 | 0.413 | 2.08 |  |  |  | 2.73 |  |  |  |  |  | 2.05 |  | 0.94 | 
O=C(O)CSc1n[nH]c(-c2ccccc2)n1 | > 100 | > 100 | > 100 | > 100 | > 100 | > 100 | > 100 |  |  |  |  |  |  |  |  |  |  |  | > 100 | 
c1ccc(SC2CCSc3ccccc3C2Sc2ccccc2)cc1 (stereo unspecified) | > 100 | 85 |  | > 100 | > 100 | > 100 | > 100 |  |  |  |  |  |  |  |  |  | > 100 |  | > 100 | 
O=c1n(-c2ccccc2)c(=O)n2n1C1C=CC2C2C(C1)C2(Cl)Cl (stereo unspecified) | > 100 | > 100 | > 100 | > 100 | > 100 | > 100 | > 100 |  |  |  |  |  |  |  |  |  | > 100 |  | > 100 | 
CCOc1ccc2c(c1)[n+]([O-])c(-c1ccccc1Cl)c(N)[n+]2[O-] | > 100 | > 100 | > 100 | > 100 | > 100 | > 100 | > 100 |  |  |  |  |  |  |  |  |  | > 100 |  |  | 
O=C1c2ccccc2C2(O)c3cc4ccccc4cc3OC12O (stereo unspecified) | > 100 | > 100 | > 100 | > 100 | > 100 | > 100 | > 100 |  |  |  |  |  |  |  |  |  | 89.3 |  | > 100 | 
CC1=C2CCCC2=C/C(=N/Nc2ccc([N+](=O)[O-])cc2[N+](=O)[O-])CC1 | > 100 | > 100 | > 100 | > 100 | > 100 | > 100 | > 100 |  |  |  |  |  |  |  |  |  | > 100 |  |  | 
CC(=O)n1c2c(c(=O)n1-c1ccccc1)S(=O)CCC2 (stereo unspecified) | > 78.6 | > 100 | > 100 | > 100 | > 100 | > 100 | > 100 |  |  |  |  |  |  |  |  |  | > 100 |  | > 100 | 
COc1ccc(/C(=N\NC(=O)C(N)=O)C(c2ccc(OC)cc2)C2(O)C(=O)Nc3c(Cl)cccc32)cc1 (stereo unspecified) | > 100 |  | > 100 | > 100 | > 100 |  | > 100 |  |  |  |  |  |  |  |  |  | > 100 |  | > 100 | 
O=C(CSc1nnc(-c2ccc(N=Cc3ccc(Cl)cc3)cc2)o1)Nc1ccc(Cl)cc1 | > 100 |  |  | > 100 | > 100 |  | > 100 |  |  |  |  |  |  |  |  |  | > 100 |  |  | 
COc1ccc(-c2cc(-c3ccccc3)c(C#N)c(=O)n2C2OC(CO)C(O)C(O)C2O)cc1 (stereo unspecified) | > 100 |  | > 100 | > 100 | > 100 | > 100 | > 100 |  |  |  |  |  |  |  |  |  | > 100 |  | > 100 | 
CCOC(=O)C1(c2ccccc2)CCC(=O)CC1 | > 100 | > 100 | > 100 | > 100 | > 100 |  | > 100 |  |  |  |  |  |  |  |  |  | > 100 |  | > 100 | 
CC(=O)O[C@H]1CCC2[C@@H]3CCC4=C(O)c5nocc5C[C@]4(C)C3CC[C@@]21C (stereo partly specified) | > 100 | > 100 | > 100 | > 100 | > 100 | > 100 | > 100 |  |  |  |  |  |  |  |  |  | > 100 |  |  | 
CC(C)=CCc1cc(O)cc2c1OC(C=C(C)C)C1=C2C(=O)C2=C(NCCS2(=O)=O)C1=O (stereo unspecified) | 7.11 |  | 5.43 | 2.69 | 4.28 | 4.82 | 5.78 | 2.93 |  | 2.18 | 4.31 | 2.15 | 0.646 | 1.2 | 2.32 | 2.3 | 4.61 | 2.58 | 5.19 | 2.63
